Earlier results as cited in article PMC9516332 (Frontiers in Oncology, 2022).
Where two headings read alike, the source gives them in different places.

Legend:
Settings in all cases: cited from earlier work
[1] = target: T1, panel of 255 wild-type kinases (Homo sapiens, UniProt O94806)
T1 sequence (O94806 1-890): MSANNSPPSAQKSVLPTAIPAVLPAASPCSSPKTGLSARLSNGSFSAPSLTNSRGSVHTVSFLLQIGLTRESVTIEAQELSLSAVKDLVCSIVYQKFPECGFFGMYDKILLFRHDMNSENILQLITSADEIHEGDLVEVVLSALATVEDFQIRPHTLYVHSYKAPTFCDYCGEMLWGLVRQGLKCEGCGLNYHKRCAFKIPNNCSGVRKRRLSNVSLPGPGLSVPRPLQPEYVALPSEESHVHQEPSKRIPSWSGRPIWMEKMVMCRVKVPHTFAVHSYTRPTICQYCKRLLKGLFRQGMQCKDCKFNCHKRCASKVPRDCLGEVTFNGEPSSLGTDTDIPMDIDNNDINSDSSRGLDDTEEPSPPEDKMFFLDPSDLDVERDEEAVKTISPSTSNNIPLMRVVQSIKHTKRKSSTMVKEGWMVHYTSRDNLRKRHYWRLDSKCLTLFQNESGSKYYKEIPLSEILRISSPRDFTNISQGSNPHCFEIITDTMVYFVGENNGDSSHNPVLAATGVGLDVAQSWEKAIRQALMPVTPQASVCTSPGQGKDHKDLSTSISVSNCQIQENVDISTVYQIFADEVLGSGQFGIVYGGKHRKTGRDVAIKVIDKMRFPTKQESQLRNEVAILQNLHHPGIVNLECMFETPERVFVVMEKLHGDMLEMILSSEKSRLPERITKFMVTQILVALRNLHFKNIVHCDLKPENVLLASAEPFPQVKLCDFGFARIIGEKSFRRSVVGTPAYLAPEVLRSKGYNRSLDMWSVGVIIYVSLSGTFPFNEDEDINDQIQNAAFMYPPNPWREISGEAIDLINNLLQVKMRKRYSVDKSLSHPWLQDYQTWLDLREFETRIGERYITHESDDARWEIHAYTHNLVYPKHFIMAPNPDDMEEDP

[2] = target: panel of 255 wild-type kinases (Homo sapiens, UniProt P00519)
[3] = target: panel of 255 wild-type kinases (Homo sapiens, UniProt P04629)
[4] = target: panel of 255 wild-type kinases (Homo sapiens, UniProt P06241)
[5] = target: panel of 255 wild-type kinases (Homo sapiens, UniProt P07332)
[6] = target: panel of 255 wild-type kinases (Homo sapiens, UniProt P10721)
[7] = target: panel of 255 wild-type kinases (Homo sapiens, UniProt P22612)
[8] = target: panel of 255 wild-type kinases (Homo sapiens, UniProt P31749)
[9] = target: T2, panel of 255 wild-type kinases (Homo sapiens, UniProt Q08881)
T2 sequence (Q08881 1-620): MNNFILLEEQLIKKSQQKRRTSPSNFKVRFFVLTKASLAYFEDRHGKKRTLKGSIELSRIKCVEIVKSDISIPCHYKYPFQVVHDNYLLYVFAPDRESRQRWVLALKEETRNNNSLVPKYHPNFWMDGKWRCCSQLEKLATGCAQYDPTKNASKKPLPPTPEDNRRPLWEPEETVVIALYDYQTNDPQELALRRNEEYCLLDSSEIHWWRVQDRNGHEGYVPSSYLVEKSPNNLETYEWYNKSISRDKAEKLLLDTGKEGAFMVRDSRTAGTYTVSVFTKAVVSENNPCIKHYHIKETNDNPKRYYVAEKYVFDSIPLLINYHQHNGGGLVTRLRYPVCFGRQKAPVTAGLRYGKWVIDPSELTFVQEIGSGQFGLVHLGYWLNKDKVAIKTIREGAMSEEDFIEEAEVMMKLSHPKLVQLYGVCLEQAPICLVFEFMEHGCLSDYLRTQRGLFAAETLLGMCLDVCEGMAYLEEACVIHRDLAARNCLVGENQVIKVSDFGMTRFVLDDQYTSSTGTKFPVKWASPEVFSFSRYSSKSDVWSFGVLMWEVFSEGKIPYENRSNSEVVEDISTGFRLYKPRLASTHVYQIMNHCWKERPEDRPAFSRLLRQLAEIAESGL

[10] = target: panel of 255 wild-type kinases (Homo sapiens, UniProt Q13464)
[11] = target: panel of 255 wild-type kinases (Homo sapiens, UniProt Q16539)
[12] = target: panel of 255 wild-type kinases (Homo sapiens, UniProt Q9UPE1)
[13] = kinase PKD3, 1 µmol/L single concentration, ref DOI: 10.1158/1535-7163.MCT-18-0877
[14] = ABL kinase assay, 1 µmol/L single concentration, ref DOI: 10.1158/1535-7163.MCT-18-0877
[15] = kinase TRKA, 1 µmol/L single concentration, ref DOI: 10.1158/1535-7163.MCT-18-0877
[16] = kinase FYN [isoform a], 1 µmol/L single concentration, ref DOI: 10.1158/1535-7163.MCT-18-0877
[17] = kinase FES, 1 µmol/L single concentration, ref DOI: 10.1158/1535-7163.MCT-18-0877
[18] = kinase KIT, 1 µmol/L single concentration, ref DOI: 10.1158/1535-7163.MCT-18-0877
[19] = kinase PKACγ, 1 µmol/L single concentration, ref DOI: 10.1158/1535-7163.MCT-18-0877
[20] = AKT1 kinase assay, 1 µmol/L single concentration, ref DOI: 10.1158/1535-7163.MCT-18-0877
[21] = kinase ITK, 1 µmol/L single concentration, ref DOI: 10.1158/1535-7163.MCT-18-0877
[22] = kinase ROCK1, 1 µmol/L single concentration, ref DOI: 10.1158/1535-7163.MCT-18-0877
[23] = p38α, 1 µmol/L single concentration, ref DOI: 10.1158/1535-7163.MCT-18-0877
[24] = MSSK1, 1 µmol/L single concentration, ref DOI: 10.1158/1535-7163.MCT-18-0877
[25] = kinase KIT, 1 µmol/L single concentration, ref DOI: 10.1371/journal.pone.0092146
[26] = kinase ITK, 1 µmol/L single concentration, ref DOI: 10.1371/journal.pone.0092146

SMILES | %-inhibition at 1 µmol/L, PKD3 [1, 13] | %-inhibition ABL [2, 14] | %-inhibition at 1 µmol/L, TRKA [3, 15] | %-inhibition at 1 µmol/L, FYN [isoform a] [4, 16] | %-inhibition at 1 µmol/L, FES [5, 17] | %-inhibition at 1 µmol/L, KIT [6, 18] | %-inhibition at 1 µmol/L, PKACγ [7, 19] | %-inhibition AKT1 [8, 20] | %-inhibition at 1 µmol/L, ITK [9, 21] | %-inhibition at 1 µmol/L, ROCK1 [10, 22] | %-inhibition, p38α [11, 23] | %-inhibition, MSSK1 [12, 24] | other results
CC#CC(=O)N1CCC[C@H]1c1nc(-c2ccc(C(=O)Nc3ccccn3)cc2)c2c(N)nccn12 [acalabrutinib] | -2% | -2.81% | 13% | 6% | -6.35% | 3% | 1.68% | -6% | 0.871% | -8% | -0.752% | -5% | –
CCc1cc2c(cc1N1CCC(N3CCOCC3)CC1)C(C)(C)c1[nH]c3cc(C#N)ccc3c1C2=O [alectinib] | 2.17% | 5% | 62% | 15% | 23% | 0.373% | 3% | 3.25% | – | -2% | -0.471% | 97% | –
COc1cc(N2CCC(N3CCN(C)CC3)CC2)ccc1Nc1ncc(Cl)c(Nc2ccccc2P(C)(C)=O)n1 [brigatinib] | – | – | – | – | – | – | – | – | – | – | – | – | %-inhibition at 1 µmol/L, PKD3 [1]: 85%; %-inhibition ABL [2]: 54%; %-inhibition at 1 µmol/L, TRKA [3]: 83%; %-inhibition at 1 µmol/L, FYN [isoform a] [4]: 69%; %-inhibition at 1 µmol/L, FES [5]: 100%; %-inhibition at 1 µmol/L, KIT [6]: 51%; %-inhibition at 1 µmol/L, PKACγ [7]: 9%; %-inhibition AKT1 [8]: 1.5%; %-inhibition at 1 µmol/L, ITK [9]: 95%; %-inhibition at 1 µmol/L, ROCK1 [10]: 25%; %-inhibition, p38α [11]: -0.837%; %-inhibition, MSSK1 [12]: 5.3%
Cc1cc(Nc2ncc(Cl)c(Nc3ccccc3S(=O)(=O)C(C)C)n2)c(OC(C)C)cc1C1CCNCC1 [ceritinib] | 46% | -1.61% | – | 4% | 99% | – | 1.46% | -8% | 11% | 31% | 1.8% | 36% | –
O=C(c1ccc(F)c(F)c1Nc1ccc(I)cc1F)N1CC(O)([C@@H]2CCCCN2)C1 [cobimetinib] | 4.41% | -4% | 18% | 0.258% | 1.67% | -17% | 4.37% | -7% | 4% | -2.61% | -5.49% | 1.46% | –
C[C@@H](Oc1cc(-c2cnn(C3CCNCC3)c2)cnc1N)c1c(Cl)ccc(F)c1Cl [crizotinib] | – | – | – | – | – | – | – | – | – | – | – | – | %-inhibition at 1 µmol/L, TRKA ([3]; kinase TRKA, 1 µmol/L single concentration, ref DOI: 10.1371/journal.pone.0092146): 103%; %-inhibition at 1 µmol/L, FYN [isoform a] ([4]; kinase FYN [isoform a], 1 µmol/L single concentration, ref DOI: 10.1371/journal.pone.0092146): 42%; %-inhibition at 1 µmol/L, KIT [6, 25]: 16%; %-inhibition at 1 µmol/L, PKACγ ([7]; kinase PKACγ, 1 µmol/L single concentration, ref DOI: 10.1371/journal.pone.0092146): -6.52%; %-inhibition AKT1 ([8]; AKT1 kinase assay, 1 µmol/L single concentration, ref DOI: 10.1371/journal.pone.0092146): -7%; %-inhibition at 1 µmol/L, ITK [9, 26]: 63%; %-inhibition at 1 µmol/L, ROCK1 ([10]; kinase ROCK1, 1 µmol/L single concentration, ref DOI: 10.1371/journal.pone.0092146): 3.39%; %-inhibition, p38α ([11]; p38α, 1 µmol/L single concentration, ref DOI: 10.1371/journal.pone.0092146): -2.27%
CC(C)(C)c1nc(-c2cccc(NS(=O)(=O)c3c(F)cccc3F)c2F)c(-c2ccnc(N)n2)s1 [dabrafenib] | – | – | – | – | – | – | – | – | – | – | – | – | %-inhibition at 1 µmol/L, PKD3 ([1]; kinase PKD3, 1 µmol/L single concentration, ref DOI: 10.1371/journal.pone.0092146): 93%; %-inhibition at 1 µmol/L, FES ([5]; kinase FES, 1 µmol/L single concentration, ref DOI: 10.1371/journal.pone.0092146): 2.29%; %-inhibition at 1 µmol/L, KIT [6, 25]: 59%; %-inhibition at 1 µmol/L, ITK [9, 26]: 49%; %-inhibition, MSSK1 ([12]; MSSK1, 1 µmol/L single concentration, ref DOI: 10.1371/journal.pone.0092146): 2.55%
C=CC(=O)N1CCC[C@@H](n2nc(-c3ccc(Oc4ccccc4)cc3)c3c(N)ncnc32)C1 [ibrutinib] | 5.48% | 8% | 59% | 93% | 0.681% | -4.53% | 5% | -9% | 93% | -5.42% | -2.71% | 1.54% | –
CO[C@@H]1[C@H](N(C)C(=O)c2ccccc2)C[C@H]2O[C@]1(C)n1c3ccccc3c3c4c(c5c6ccccc6n2c5c31)C(=O)NC4 [midostaurin] | – | 9% | 100% | 78% | 90% | – | 81% | – | 73% | 13% | -1.38% | -9% | –
